Measured values: patent US9340577B2, “HLA binding motifs and peptides and their uses” (priority 1992, dated 2016)
No end group written: not given here.

How the values were obtained:
Assay in all cases: biochemical
Assay type in all cases: binding
HLA-A3.2 (A*0301) = HLA-A3.2 (A*0301) (Homo sapiens, UniProt P04439)
HLA-A11 (A*1101) = HLA-A11 (A*1101) (Homo sapiens, UniProt P04439, A114D/D185E/E176A/F33Y/L180Q/S129P/T187R)
A31 (A*3101) = A31 (A*3101) (Homo sapiens, UniProt P04439, A270S/D185E/E176V/E277Q/F33T/G231S/G80R/H175R/I121M/I218V/I322F/K168Q/L300P/L318F/M331R/P217A/Q94H/R138Q/T323A/T345S/T97I/V358M)
A*3301 = A*3301 (Homo sapiens, UniProt P04439, A270S/D185E/E176V/E277Q/E87N/F33T/G231S/H175R/I121M/I218V/I322F/K168Q/K210R/L300P/L318F/M331R/P217A/Q86R/Q94H/R138Q/T323A/T345S/T97I/V358M/Y195H)
A*6801 = A*6801 (Homo sapiens, UniProt P04439, A269V/D185E/E176V/E277Q/E87N/F33Y/G231S/I121M/I166T/I218V/L180W/L300P/L318F/N151K/P208A/P217A/Q86R/R169H/T345S)

| Molecule | IC50 (HLA-A3.2 (A*0301)) [nM] | IC50 (HLA-A11 (A*1101)) [nM] | IC50 (A31 (A*3101)) [nM] | IC50 (A*3301) [nM] | IC50 (A*6801) [nM] |
| --- | --- | --- | --- | --- | --- |
| VVQQLLMGA [Peptide 78.0338] | > 20000 | > 20000 | 2830 | 438 | 1440 |
| KIKPPLPSVR [Peptide 9017.0234] | 1110 | 6950 | 8.1 | 3440 | 14700 |
| LLQAVRIIK [Peptide 9017.0068] | 107 | 326 | 328 | 3020 | 15900 |
| TILWKDIFHR [Peptide 9012.0223] | 1970 | 10 | 33 | 11 | 26 |
| GLYYWCDGEK [Peptide 88.0229] | 107 | 24 | 5100 | > 20000 | 10000 |
| SVRKLTEDR [Peptide 9017.0106] | 16800 | 7640 | 48 | 646 | 226 |
| SVYGDTLEK [Peptide 78.0277] | 72 | 14 | > 20000 | > 20000 | 17 |
| KSFLKGTPK [Peptide 88.0344] | 16 | 23 | 22 | 16100 | 1910 |
| QQMFLGTVK [Peptide 88.0415] | 2040 | 22 | 7170 | > 20000 | 1580 |
| ILLLLIRFK [Peptide 88.0386] | 120 | 1880 | 48 | 402 | 2500 |
| DLPSQIEHWK [Peptide 88.0212] | > 20000 | > 20000 | > 20000 | > 20000 | 25 |
| CFFTRTWSR [Peptide 88.0382] | 13500 | 1490 | 4.3 | 3 | 52 |
| HLFWYSWYK [Peptide 76.0168] | 6.4 | 5.3 | 28 | 39 | 3.4 |
| WTIAYIEYRK [Peptide 9017.0244] | 4650 | 62 | 885 | 493 | 1.2 |
| VTVYYGIPVWR [Peptide 1525.05] | 123 | 17 | 3.8 | 4.5 | 3.6 |
| SVYGETLEK [Peptide 78.0291] | 347 | 166 | > 20000 | > 20000 | 2620 |
| YGFRLGFLK [Peptide 1556.27] | 41 | 1 | 224 | 839 | 16 |
| RLIERIRER [Peptide 9017.0124] | 57 | 407 | 14 | 1100 | 983 |
| VTVQYDNDKK [Peptide 88.0216] | 18200 | 100 | > 20000 | > 20000 | 1150 |
| ETLNASPYK [Peptide 1589.39] | 163 | 27 | > 20000 | 4710 | 28 |
| LFYSKVRKYK [Peptide 88.0098] | 680 | 2580 | 18 | 30 | 1980 |
| EVLMWKFDSR [Peptide 9017.0192] | > 20000 | 7630 | 436 | 62 | 2.8 |
| MALESILRK [Peptide 9012.0214] | 216 | 13 | > 20000 | 5480 | 433 |
| ALTALIKPKK [Peptide 9017.0229] | 529 | 430 | 901 | > 20000 | 2100 |
| AQVLHLLKRK [Peptide 1587.52] | 339 | 308 | 18200 | > 20000 | > 20000 |
| WTYFDTYMR [Peptide 88.0346] | > 20000 | 293 | 332 | 95 | 3.8 |
| VVYRDSIPH [Peptide 78.0275] | 401 | 178 | > 20000 | > 20000 | > 20000 |

| Molecule | IC50 (HLA-A3.2 (A*0301)) [nM] | IC50 (HLA-A11 (A*1101)) [nM] | IC50 (A31 (A*3101)) [nM] | IC50 (A*3301) [nM] | IC50 (A*6801) [nM] |
| --- | --- | --- | --- | --- | --- |
| RQMNMSQWIK [Peptide 1587.54] | 18 | 7.5 | 41 | > 20000 | 3110 |
| LVYRDDFPY [Peptide 1581.04] | 7380 | 58 | > 20000 | > 20000 | 11300 |
| KTTPVVHLK [Peptide 1589.37] | 28 | 22 | 28 | > 20000 | 33 |
| WTIAYIEYR [Peptide 9017.0116] | 11300 | 31 | 97 | 14 | 8.6 |
| TLWNPPTTAK [Peptide 1556.04] | 22 | 107 | 6830 | 2240 | 438 |
| CC(C)C[C@H](NC(=O)[C@H](Cc1c[nH]cn1)NC(=O)[C@H](CO)NC(=O)[C@H](CO)NC(=O)[C@H](Cc1c[nH]cn1)NC(=O)[C@H](C)NC(=O)[C@@H](N)CCCNC(=N)N)C(=O)N[C@@H](CCCCN)C(=O)O [Peptide 1556.70] | 27 | 18 | 619 | > 20000 | 2880 |
| NLQGKLYYK [Peptide 88.0375] | 277 | 55 | 363 | 9.4 | 98 |
| RINTWKSLVK [Peptide 9017.0215] | 12 | 10 | 632 | > 20000 | 11500 |
| SIVGWPAVR [Peptide 9017.0058] | 1090 | 632 | 79 | 469 | 21 |
| SQWIKYRCDR [Peptide 88.0136] | 19100 | 11000 | 418 | 2710 | > 20000 |
| YVMAGVGSPK [Peptide 9012.0253] | 25 | 13 | 5730 | 219 | 18 |
| KSCFAMSLIK [Peptide 88.0190] | 57 | 17 | 311 | > 20000 | 12200 |
| TQQLQDLFK [Peptide 88.0374] | 1700 | 53 | > 20000 | 2000 | 6680 |
| RVLQGLPREK [Peptide 9012.0238] | 38 | 35 | 88 | > 20000 | 14400 |
| TTNCTYKGR [Peptide 1589.41] | > 20000 | 2210 | 58 | 165 | 38 |
| CSCC[C@H](NC(=O)[C@@H](N)CCCCN)C(=O)N[C@@H](Cc1ccccc1)C(=O)N[C@@H](CS)C(=O)N[C@@H](CCC(N)=O)C(=O)N[C@@H](CC(C)C)C(=O)N[C@@H](C)C(=O)N[C@@H](CCCCN)C(=O)O [Peptide 1556.52] | 37 | 22 | 410 | > 20000 | 1280 |
| LTNILNVLK [Peptide 1587.02] | 221 | 4.6 | 210 | 2030 | 12 |
| KVSPIVHLK [Peptide 1589.42] | 21 | 30 | 6 | > 20000 | 25 |
| FLSALKLFLK [Peptide 1587.38] | 715 | 165 | 984 | 2590 | 1560 |
| LLLIRFKCSK [Peptide 88.0191] | 284 | 3520 | 749 | 17400 | 879 |
| GTVFGILIKR [Peptide 9012.0243] | 2560 | 27 | 46 | 3130 | 18 |
| ILYQSNPYPK [Peptide 9017.0198] | 8.8 | 14 | 549 | 11000 | 37 |
| ESKKEVESK [Peptide 9017.0083] | > 20000 | 8040 | > 20000 | > 20000 | 158 |
| VIDSPAGQA [Peptide 78.0316] | 13000 | 9430 | 407 | 913 | 983 |
| GVSIEWRKRR [Peptide 9017.0221] | > 20000 | 6320 | 226 | 1680 | 8810 |
| VTIYYGVPVWK [Peptide 1525.03] | 42 | 2.5 | 534 | > 20000 | 28 |
